According to publication PMC7070407, “Moringin, A Stable Isothiocyanate from Moringa oleifera, Activates the Somatosensory and Pain Receptor TRPA1 Channel In Vitro” (Molecules, 2020):

How the values were obtained:
[1] = test system: not transfected HEK-293 cells; assay: Effect on [Ca2+]i in not transfected HEK-293 cells (baseline); type: cell-based, human; details: AITC 100 μM
Description: Compound and extracts’ effects on intracellular Ca^2+ concentration ([Ca^2+]i) were determined using the selective intracellular fluorescent probe for Ca^2+ Fluo-4. Assay of rat TRPA1, TRPV2, TRPV3, TRPV4, TRPM8 or human TRPV1 mediated elevation of intracellular Ca^2+ in transfected HEK-293 cells are been performed as described. Briefly, human embryonic kidney (HEK-293) cells, stably transfected with rat TRPA1, TRPV2, TRPV3, TRPV4, TRPM8 or human TRPV1 (selected by Geneticin 600 μg mL^−1) or not transfected, were cultured in EMEM + 2 mM Glutamine + 1% Non-Essential Amino Acids (NEAA) + 10% FBS and maintained at 37 °C with 5% CO2. Stable transfections were checked by quantitative real-time polymerase chain reaction (PCR), quantitative real-time PCR was performed by an iCycler-iQ (Bio-Rad, Hercules, CA, USA) in a 20 μL reaction mixture containing the following: 10 μL iQ SYBR Green Supermix 2X (Bio-Rad), 20 ng of cDNA (calculated on the basis of the retro-transcribed RNA), and 330 nM for each primer. […] Cell fluorescence before and after the addition of various concentrations of test compounds and extracts were measured normalizing the effects against the response to ionomycin (4 µM). […] The potency of the compounds (EC50 values) are determined as the concentration required to produce half-maximal increases in [Ca^2+]i. […]

rat TRPA1 = molecular target: T1, rat TRPA1 (Rattus norvegicus, UniProt Q6RI86); assay: Elevation of intracellular Ca2+ (Fluo-4) in HEK-293 cells stably transfected with rat TRPA1; agonist and antagonist/desensitizing behaviour; type: cell-based; details: AP18 at 50 μM, 5 min pre-incubation, rTRPA1-HEK-293
T1 construct: expressed in transfected cells; host or cells: HEK-293
T1 sequence (Q6RI86 whole entry): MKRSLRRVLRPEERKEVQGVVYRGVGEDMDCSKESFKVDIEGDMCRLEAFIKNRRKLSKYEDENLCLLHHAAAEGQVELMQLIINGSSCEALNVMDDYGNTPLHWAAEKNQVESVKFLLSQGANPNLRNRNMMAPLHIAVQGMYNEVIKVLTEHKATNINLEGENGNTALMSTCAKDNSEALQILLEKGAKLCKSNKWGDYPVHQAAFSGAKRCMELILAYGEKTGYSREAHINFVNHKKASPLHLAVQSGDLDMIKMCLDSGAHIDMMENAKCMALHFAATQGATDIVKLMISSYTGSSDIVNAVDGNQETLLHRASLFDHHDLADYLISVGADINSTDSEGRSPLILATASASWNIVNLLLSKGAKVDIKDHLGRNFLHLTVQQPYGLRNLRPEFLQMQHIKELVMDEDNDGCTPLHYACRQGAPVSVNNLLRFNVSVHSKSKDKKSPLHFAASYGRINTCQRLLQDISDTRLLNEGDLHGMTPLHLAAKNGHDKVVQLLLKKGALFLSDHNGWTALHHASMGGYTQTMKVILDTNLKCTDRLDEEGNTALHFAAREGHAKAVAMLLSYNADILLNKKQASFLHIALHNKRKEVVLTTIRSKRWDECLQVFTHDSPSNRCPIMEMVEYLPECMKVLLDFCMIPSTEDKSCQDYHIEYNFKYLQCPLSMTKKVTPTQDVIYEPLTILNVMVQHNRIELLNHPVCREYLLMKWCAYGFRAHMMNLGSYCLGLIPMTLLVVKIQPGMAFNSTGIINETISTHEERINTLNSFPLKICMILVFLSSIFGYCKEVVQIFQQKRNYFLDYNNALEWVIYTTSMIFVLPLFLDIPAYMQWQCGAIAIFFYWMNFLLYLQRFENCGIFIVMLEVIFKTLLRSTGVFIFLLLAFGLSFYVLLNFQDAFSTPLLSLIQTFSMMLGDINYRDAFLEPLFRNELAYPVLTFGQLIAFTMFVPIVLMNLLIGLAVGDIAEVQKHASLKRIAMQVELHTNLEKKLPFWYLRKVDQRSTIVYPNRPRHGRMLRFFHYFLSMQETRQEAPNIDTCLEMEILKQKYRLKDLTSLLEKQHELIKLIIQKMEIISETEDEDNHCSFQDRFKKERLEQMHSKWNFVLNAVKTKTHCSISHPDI
Description: Assay of rat TRPA1, TRPV2, TRPV3, TRPV4, TRPM8 or human TRPV1 mediated elevation of intracellular Ca^2+ in transfected HEK-293 cells are been performed as described. Briefly, human embryonic kidney (HEK-293) cells, stably transfected with rat TRPA1, TRPV2, TRPV3, TRPV4, TRPM8 or human TRPV1 (selected by Geneticin 600 μg mL^−1) or not transfected, were cultured in EMEM + 2 mM Glutamine + 1% Non-Essential Amino Acids (NEAA) + 10% FBS and maintained at 37 °C with 5% CO2. Stable transfections were checked by quantitative real-time polymerase chain reaction (PCR), quantitative real-time PCR was performed by an iCycler-iQ (Bio-Rad, Hercules, CA, USA) in a 20 μL reaction mixture containing the following: 10 μL iQ SYBR Green Supermix 2X (Bio-Rad), 20 ng of cDNA (calculated on the basis of the retro-transcribed RNA), and 330 nM for each primer. Optimized primers for SYBR Green analysis (and relative TaOpt) and optimum annealing temperatures were designed by Allele-Id software version 7.0 (Biosoft International, Palo Alto, CA, USA) and were synthesized (HPLC-purification grade) by MWG-Biotech AG (Ebersberg, Germany). Assays were performed in quadruplicate (maximal ΔCt of replicate samples, <0.5). Relative expression analysis, correct for PCR efficiency and normalized with respect to reference genes β-actin and glyceraldehyde 3-phosphate dehydrogenase, was performed by GENEX software (Bio-Rad). […] The day of the experiment the cells were loaded with Fluo-4 AM (4 μM in DMSO containing 0.02% Pluronic F-127) for 1 h in the dark at room temperature, rinsed and resuspended in Tyrode’s solution (145 mM NaCl, 2.5 mM KCl, 1.5 mM CaCl2, 1.2 mM MgCl2, 10 mM D-glucose, and 10 mM HEPES, pH 7.4), finally transferred to a quartz cuvette of a spectrofluorimeter (Perkin-Elmer LS50B; λEX = 488 nm, λEM = 516 nm) equipped with PTP-1 Fluorescence Peltier System (PerkinElmer Life and Analytical Sciences, Waltham, MA, USA) under continuous stirring. Cell fluorescence before and after the addition of various concentrations of test compounds and extracts were measured normalizing the effects against the response to ionomycin (4 µM). The values of the effect on [Ca^2+]i in HEK-293 cells not transfected are used as baseline and subtracted from the values obtained from transfected cells. […] The potency of the compounds (EC50 values) are determined as the concentration required to produce half-maximal increases in [Ca^2+]i. In TRPV3 assay TRPV3-expressing HEK293 cells were first sensitized with the structurally unrelated agonist 2-aminoethoxydiphenyl borate (100 μM). Antagonist/desensitizing behaviour is evaluated against the agonist of the TRP analyzed by adding the compounds directly in the quartz cuvette 5 min before stimulation of cells with the agonist. […] In order to assess functional antagonism of TRPA1 channels, AP18, 4-(4-chlorophenyl)-3-methyl-3-buten-2-one oxime […] Dose-response curve fitting (sigmoidal dose-response variable slope) and parameter estimation were performed with Graph-Pad Prism8® (GraphPad Software Inc., San Diego, CA, USA). All determinations were performed at least in triplicate.

| Structure (SMILES) | Effect on not transfected HEK-293 cells [1] | Reduction of elevation of intracellular Ca2+ induced by AITC (100 μM) (rat TRPA1) [%] | Reduction of elevation of intracellular Ca2+ induced by moringin (10 μM) (rat TRPA1) [%] |
| --- | --- | --- | --- |
| C=CCN=C=S [AITC, Allylisothiocyanate, reference compound] | about 1% |  |  |
| CC(=Cc1ccc(Cl)cc1)C(C)=NO [AP18, 4-(4-chlorophenyl)-3-methyl-3-buten-2-one oxime, reference compound] |  | 68.6 ± 3.0 | 64.1 ± 2.7 |
